These are literature values, as cited in patent publication US20030069213A1, “ORAL PREPARATION” (priority 1997, published 2003).

Values after ≈ are worked out from the molar mass of the structure shown. Counter-ions that a name gives are not always drawn. Like-named read-outs stand apart in the source and are kept apart here.

Experiment in data set [1]: not given
This is another data set of the same source.

For data set [2] the following is noted: dissolved in water.

In the case of `CN/C(=N/CCSCc1nc[nH]c1C)NC#N` [cimetidine], the solubility in water is, setting by setting: (pH 6.5, 25° C.) 30 mg/mL (≈ 119 mM); (pH 8.3, 25° C.) 5.3 mg/mL (≈ 21 mM). Besides, the pKa (in general, the negative logarithm of the acid dissociation constant) in data set [1] was 7.1.
Regarding `OC[C@@H](O)[C@H](O)[C@@H](O)CO` [xylitol], the heat of dissolution in data set [2] was -35 cal/g; in data set [2] (listed as Xylitol), “Xylitol (−35) cal/g”.
On to `NC[C@H]1CC[C@H](C(=O)O)CC1` [tranexamic acid], for which, in data set [1], the “pKa (amino group)” value is listed as 10.65 and the “pKa (carboxyl group)” value is 4.33.
As for `NC[C@H]1CC[C@H](C(=O)Oc2ccc(CCC(=O)O)cc2)CC1` [cetraxate hydrochloride], the solubility in water is, setting by setting: (pH 2.8, 22° C.) 27 mg/mL; (pH 5.9, 22° C.) 0.4 mg/mL. Further, the “pKa (amino group)” value in data set [1] is recorded as 10.5. In data set [1], the “pKa (carboxyl group)” value was 4.5.
In the case of `OC[C@H]1O[C@@](CO)(O[C@H]2O[C@H](CO)[C@@H](O)[C@H](O)[C@H]2O)[C@@H](O)[C@@H]1O` [sucrose], the values for the heat of dissolution in data set [2] and in data set [2] (listed as Sucrose) were -4.5 cal/g and “Sucrose (−4.5) cal/g”, respectively.
On to `OC[C@@H](O)[C@@H](O)[C@H](O)[C@@H](O)CO` [sorbitol], for which the figures for the heat of dissolution in data set [2] and in data set [2] (listed as D-Sorbitol) were -24.1 cal/g and “(−24.1) cal/g”, respectively.
On to `OC[C@@H](O)[C@@H](O)CO` [erythritol], for which the heat of dissolution in data set [2] is -42.9 cal/g.
Consider `Clc1ccccc1CN1CCc2sccc2C1` [ticlopidine hydrochloride], for which, in data set [1], the pKa was 6.93.
On to `OC[C@@H](O)[C@@H](O[C@H]1O[C@H](CO)[C@@H](O)[C@H](O)[C@H]1O)[C@H](O)[C@@H](O)CO` [maltitol], for which the figures for the heat of dissolution in data set [2] and in data set [2] (listed as Maltitol) were -5.5 cal/g and “Maltitol (−5.5) cal/g”, respectively.
Take `OC[C@@H](O)[C@@H](O)[C@H](O)[C@H](O)CO` [mannitol]: the heat of dissolution in data set [2] is -28.9 cal/g; in data set [2] (listed as D-Mannitol), “(−28.9) cal/g”.
